Assays:
SF-295 = assay: NCI-60 screen, CNS Cancer SF-295; format: cell-based, human; conditions: SF-295, five doses 10^−4–10^−8 M
NCI-H226 = assay: NCI-60 screen, Non-Small Cell Lung Cancer NCI-H226; format: cell-based, human
HS 578T = assay: NCI-60 screen, Breast Cancer HS 578T; format: cell-based, human
SK-MEL-2 = assay: NCI-60 screen, Melanoma SK-MEL-2; format: cell-based, human
ACHN = assay: NCI-60 screen, Renal Cancer ACHN; format: cell-based, human
OVCAR-3 = assay: NCI-60 screen, Ovarian Cancer OVCAR-3; format: cell-based, human
NCI-H522 = assay: NCI-60 screen, Non-Small Cell Lung Cancer NCI-H522; format: cell-based, human
SK-OV-3 = assay: NCI-60 screen, Ovarian Cancer SK-OV-3; format: cell-based, human
HT29 = assay: NCI-60 screen, Colon Cancer HT29; format: cell-based, human
SK-MEL-5 = assay: NCI-60 screen, Melanoma SK-MEL-5; format: cell-based, human
SNB-75 = assay: NCI-60 screen, CNS Cancer SNB-75; format: cell-based, human; conditions: SNB-75, five doses 10^−4–10^−8 M
OVCAR-8 = assay: NCI-60 screen, Ovarian Cancer OVCAR-8; format: cell-based, human
C32 = assay: MTT cell viability assay, C32; format: cell-based, human; conditions: Homo sapiens, 72 h
Experimental: (§1) Twelve compounds (2a-e, 3a-d and 4a-c) at a concentration range of 50–5000 μM were tested for their antiproliferative potential against four human cancer cell lines (A375—melanotic melanoma, C32—amelanotic melanoma, DU145—prostate cancer androgen-independent, MCF-7/WT—breast adenocarcinoma) and two normal cell lines: Chinese Hamster Ovary (CHO-K1) and immortalized human keratinocytes from histologically normal skin (HaCaT).
(§2) To determine the antiproliferative activity of newly synthesized compounds, the following cell lines were used: human melanotic melanoma cell line (A375), human amelanotic melanoma cell line (C32), human breast adenocarcinoma cell line (MCF-7/WT), human prostate cancer androgen-independent (DU145) and two normal cell lines: hamster ovarian (CHO-K1) and immortalized human keratinocytes from histologically normal skin (HaCaT). The cells were obtained from the cell line bank of the Department of Molecular and Cellular Biology, Wroclaw Medical University. A375, C32, MCF-7/WT, DU145 and HaCaT cells were grown in a monolayer cultured in Dulbecco’s Modified Eagle’s Medium (DMEM, Sigma-Aldrich, Poznań, Poland), supplemented with 10% of fetal bovine serum (FBS, Gibco, Paisley, UK) and 1% of antibiotics (penicillin/streptomycin, Sigma-Aldrich) and CHO-K1 were grown in HAM’s F-12 medium (Sigma-Aldrich), supplemented with 10% fetal bovine serum (FBS, Gibco) and 1% of antibiotics (penicillin/streptomycin, Sigma-Aldrich). Cell lines were cultured in the polystyrene flasks 25 or 75 cm^2 (Thermo Fisher Scientific, Waltham, MA, USA), which were stored in 37 °C and 5% CO2 in a humidified 95% atmosphere (SteriCult, Thermo Scientific, Alab). The cell medium was exchanged twice a week. The exponentially growing cells were used throughout the experiments. The cells were rinsed with phosphate-buffered saline (PBS, Sigma-Aldrich) and trypsinized by Trypsin-EDTA 0.25% solution (Sigma-Aldrich).
(§3) The influence of the compounds was performed in a monolayer culture on cancer and normal cells. Compounds were initially dissolved in DMSO; further dilutions of the compound were performed in Dulbecco’s Modified Eagle’s Medium supplemented with 10% FBS. Compounds were tested in a 50–5000 µM concentration range. In the in vitro experiments, the concentrations of DMSO in the final solution of the compounds were used 0.05%; 0.1%; 0.5%; 1%, respectively.
(§4) Cell viability was determined using the MTT colorimetric assay. All cell lines were seeded into 96-well plates to a density of 3 × 10^4 cells/well. After 24 h, the culture supernatants were removed and appropriate dilutions of compounds in the culture medium (200 µL/well) were added to the cells’ monolayer cultures and incubated for an additional 72 h. After 72 h of exposition to the compounds and the removal of the culture medium, cell viability was determined by reducing the yellow dye 3-(4,5-dimethyl-2-thiazol)-2,5-diphenyl-2H-tetrazolium bromide (MTT assay, Sigma Saint Louis, MO, USA; In Vitro Toxicology Assay) to a blue formazan product. The absorbance of the resulting solutions in three duplicate experiments was measured at the wavelength of 560 nm in a microplate reader (EnSpire, Perkin Elmer, Kraków, Poland). MTT assay is a colorimetric method that estimates the rate of metabolism in viable cells. Absorbance is directly proportional to the number of viable cells. All the experiments were performed three times and the mean absorbance values were calculated. The methodology for the evaluation of the growth of human cancer and normal cells was described previously. The cell viability in each group was expressed as a percentage of control (untreated) cells.

SN12C = assay: NCI-60 screen, Renal Cancer SN12C; format: cell-based
T-47D = assay: NCI-60 screen, Breast Cancer T-47D; format: cell-based
SK-MEL-28 = assay: NCI-60 screen, Melanoma SK-MEL-28; format: cell-based
RPMI-8226 = assay: NCI-60 screen, Leukemia RPMI-8226; format: cell-based, human
786-0 = assay: NCI-60 screen, Renal Cancer 786-0; format: cell-based
A498 = assay: NCI-60 screen, Renal Cancer A498; format: cell-based, human
A375 = assay: MTT cell viability assay, A375; format: cell-based, human; conditions: Homo sapiens
Experimental: as §1, §2, §3, §4

[1] = Homo sapiens, five doses 10^−4–10^−8 M
[2] = Homo sapiens, five doses 10^−4–10^−8 M, read-out: log LC50 (the source's name) (converted)
[3] = Homo sapiens, SK-MEL-2, five doses 10^−4–10^−8 M
[4] = Homo sapiens, NCI-H522, five doses 10^−4–10^−8 M

## FC(F)(F)c1nc(Cl)c2sc(=S)n(-c3ccccc3)c2n1 [Compound 3b, 7-chloro-3-phenyl-5-(trifluoromethyl)[1, 3]thiazolo[4,5-d]pyrimidine-2(3H)-thione]
SF-295; Homo sapiens
  GI50: 12.3 µM
  LC50: 52.5 µM
SF-295
  log TGI: −4.59 log M
NCI-H226; Homo sapiens, NCI-H226, five doses 10^−4–10^−8 M
  GI50: 13.8 µM
NCI-H226; Homo sapiens, NCI-H226, five doses 10^−4–10^−8 M, read-out: log LC50 (the source's name) (converted)
  CC50: > 100 µM
NCI-H226; NCI-H226, 10^−5 M one dose
  Growth of Cells (%): 89.12%
NCI-H226; NCI-H226, five doses 10^−4–10^−8 M
  log TGI: −4.31 log M
HS 578T; 10^−5 M one dose
  Growth of Cells (%): 21.84%
HS 578T; [1]
  GI50: 2.82 µM
HS 578T; [2]
  CC50: > 100 µM
HS 578T; five doses 10^−4–10^−8 M
  log TGI: −5.07 log M
SK-MEL-2; [3]
  GI50: 2 µM
  LC50: 7.24 µM
SK-MEL-2; SK-MEL-2, 10^−5 M one dose
  Growth of Cells (%): 55.66%
SK-MEL-2; SK-MEL-2, five doses 10^−4–10^−8 M
  log TGI: −5.42 log M
ACHN; 10^−5 M one dose
  Growth of Cells (%): 27.40%
ACHN; [1]
  GI50: 1.74 µM
ACHN; [2]
  CC50: 6.31 µM
ACHN; five doses 10^−4–10^−8 M
  log TGI: −5.48 log M
OVCAR-3; Homo sapiens, OVCAR-3, five doses 10^−4–10^−8 M
  GI50: 1.91 µM
OVCAR-3; Homo sapiens, OVCAR-3, five doses 10^−4–10^−8 M, read-out: log LC50 (the source's name) (converted)
  CC50: 6.03 µM
OVCAR-3; OVCAR-3, 10^−5 M one dose
  Growth of Cells (%): −41.27%
OVCAR-3; OVCAR-3, five doses 10^−4–10^−8 M
  log TGI: −5.47 log M
NCI-H522; [4]
  GI50: 0.204 µM
  LC50: 1.51 µM
NCI-H522; NCI-H522, 10^−5 M one dose
  Growth of Cells (%): −67.57%
NCI-H522; NCI-H522, five doses 10^−4–10^−8 M
  log TGI: −6.33 log M
SK-OV-3; Homo sapiens, SK-OV-3, five doses 10^−4–10^−8 M
  GI50: 4.9 µM
SK-OV-3; Homo sapiens, SK-OV-3, five doses 10^−4–10^−8 M, read-out: log LC50 (the source's name) (converted)
  CC50: > 100 µM
SK-OV-3; SK-OV-3, 10^−5 M one dose
  Growth of Cells (%): 101.94%
SK-OV-3; SK-OV-3, five doses 10^−4–10^−8 M
  log TGI: −4.97 log M
HT29; HT29, 10^−5 M one dose
  Growth of Cells (%): −71.75%
HT29; HT29, five doses 10^−4–10^−8 M
  log TGI: −5.40 log M
HT29; Homo sapiens, HT-29, HT29, five doses 10^−4–10^−8 M
  GI50: 1.91 µM
SK-MEL-5; Homo sapiens, SK-MEL-5, five doses 10^−4–10^−8 M
  GI50: 2.19 µM
SK-MEL-5; Homo sapiens, SK-MEL-5, five doses 10^−4–10^−8 M, read-out: log LC50 (the source's name) (converted)
  CC50: 12.3 µM
SK-MEL-5; SK-MEL-5, 10^−5 M one dose
  Growth of Cells (%): 81.95%
SK-MEL-5; SK-MEL-5, five doses 10^−4–10^−8 M
  log TGI: −5.31 log M
SNB-75; Homo sapiens
  GI50: 2 µM
  LC50: 8.91 µM
SNB-75
  log TGI: −5.38 log M
OVCAR-8; Homo sapiens, OVCAR-8, five doses 10^−4–10^−8 M
  GI50: 1.95 µM
OVCAR-8; Homo sapiens, OVCAR-8, five doses 10^−4–10^−8 M, read-out: log LC50 (the source's name) (converted)
  CC50: > 100 µM
OVCAR-8; OVCAR-8, 10^−5 M one dose
  Growth of Cells (%): 4.40%
OVCAR-8; OVCAR-8, five doses 10^−4–10^−8 M
  log TGI: −5.27 log M
C32; C32, MTT, mean ± SD
  IC50: 24.4 ± 0.5 µM
C32; C32 amelanotic melanoma, 50 µM
  viability at 50 µM: 20%
SN12C; 10^−5 M one dose
  Growth of Cells (%): 85.61%
SN12C; [2]
  CC50: 40.7 µM
SN12C; Homo sapiens, read-out: log GI50 (converted)
  GI50: 3.55 µM
SN12C; five doses 10^−4–10^−8 M
  log TGI: −4.88 log M
T-47D; Homo sapiens, T47D, read-out: log GI50 (converted)
  GI50: 1.86 µM
T-47D; Homo sapiens, T47D, T-47D, five doses 10^−4–10^−8 M, read-out: log LC50 (the source's name) (converted)
  CC50: 66.1 µM
T-47D; T-47D, 10^−5 M one dose
  Growth of Cells (%): −35.57%
T-47D; T-47D, five doses 10^−4–10^−8 M
  log TGI: −5.32 log M
SK-MEL-28; Homo sapiens, SK-MEL-28, five doses 10^−4–10^−8 M
  GI50: 1.95 µM
SK-MEL-28; Homo sapiens, SK-MEL-28, five doses 10^−4–10^−8 M, read-out: log LC50 (the source's name) (converted)
  CC50: 6.46 µM
SK-MEL-28; SK-MEL-28, 10^−5 M one dose
  Growth of Cells (%): −62.53%
SK-MEL-28; SK-MEL-28, five doses 10^−4–10^−8 M
  log TGI: −5.45 log M
RPMI-8226; Homo sapiens, RPMI-8226, five doses 10^−4–10^−8 M
  GI50: 2.51 µM
RPMI-8226; Homo sapiens, RPMI-8226, five doses 10^−4–10^−8 M, read-out: log LC50 (the source's name) (converted)
  CC50: > 100 µM
RPMI-8226; RPMI-8226, 10^−5 M one dose
  Growth of Cells (%): 44.45%
RPMI-8226; RPMI-8226, five doses 10^−4–10^−8 M
  log TGI: −5.11 log M
786-0; 786-0, 10^−5 M one dose
  Growth of Cells (%): 90.12%
786-0; 786-0, five doses 10^−4–10^−8 M
  log TGI: −5.42 log M
786-0; Homo sapiens, 786-0, five doses 10^−4–10^−8 M
  GI50: 1.95 µM
786-0; Homo sapiens, 786-0, five doses 10^−4–10^−8 M, read-out: log LC50 (the source's name) (converted)
  CC50: 7.41 µM
M14; M14, 10^−5 M one dose
  Growth of Cells (%): 26.96%
M14; M14, five doses 10^−4–10^−8 M
  log TGI: −5.39 log M
A498; A498, 10^−5 M one dose
  Growth of Cells (%): 91.46%
A498; A498, five doses 10^−4–10^−8 M
  log TGI: −4.57 log M
A498; Homo sapiens, A498, five doses 10^−4–10^−8 M
  GI50: 13.5 µM
A498; Homo sapiens, A498, five doses 10^−4–10^−8 M, read-out: log LC50 (the source's name) (converted)
  CC50: 52.5 µM
A375; A-375, 72 h, A375, MTT, mean ± SD
  IC50: 25.4 ± 0.5 µM
A375; A-375, A375 melanotic melanoma, 50 µM, 72 h
  viability at 50 µM: 20%
